For one test, the system named is mtDNA. Briefly: mtDNA copy number by qPCR, MTS-XbaIR versus EtBr, in EPC100 cells. As to conditions: qPCR relative to Actb, EtBr 50 ng/mL, untreated cells 6189.6867. Format: cell-based, human. The protocol: The efficiency and efficacy of the MTS-XbaIR expression vector relative to the conventional method that employs ethidium bromide (EtBr) was evaluated according to the scheme illustrated in FIG. 2A. The placental venous endothelium-derived cell line EPC100 with DsRed labeled mitochondria were cultured in pyruvate-free DMEM (Wako cat #044-29765) with 10% fetal bovine serum (FBS) and 1% penicillin/streptomycin (P/S), and at day 0 the cells were either untreated (“normal”), transfected with the MTS-XbaIR expression vector (“MTS-XbaIR”), or treated with 50 ng/mL of EtBr. At day 1, the cells were cultured in DMEM with 10% FBS, and 1% P/S supplemented with 100 μg/mL pyruvate and 50 μg/mL uridine. […] Cells with this partial reduction of mtDNA were termed as ρ(−) cells.

The next test has as its system NHDF recipient cells. Briefly: engulfment of DsRed-labeled exogenous mitochondria by FACS with rapamycin or palmitic acid. Format: cell-based, human. As to conditions: ρ(−) NHDF cells; rapamycin 50 ng/ml, palmitic acid 50 μM; FACS day 8. As for the experimental part:
Rapamycin was added into the culture media at the concentration of 50 ng/ml for 24 hours, and cells were exposed to glucose and essential amino acids free media without serum for 1 hour to simulate starvation. […] The ratio of phosphorylated AMPK to AMPK and phosphorylated p70 S6 kinase to p70 S6 kinase, which is a downstream target of mTORC1, were examined by using capillary electrophoresis, Wes™ (Protein Simple).
Next, we examined the effects of rapamycin and palmitic acid upon mitochondria engulfment by treating the cells with rapamycin or palmitic acid simultaneously during the mitochondria co-cultivation. A scheme of the protocol is illustrated in FIG. 6I. Briefly, the NHDF recipient cells were transfected with the MTS-XbaI expression vector and cultured with or without rapamycin, or with or without palmitic acid (PA). Puromycin selection for ρ(−) cells expressing the MTS-XbaI was performed after 48 hours. On day 6, transfer of isolated mitochondria marked with DsRed from EPC100 cells was performed. On Day8, FACS analyses were performed to detect the donor mitochondria by measuring DsRed expression in the NHDF recipient cells.

“Also recorded” adds a separate entry of the source.

In the test with mtDNA, `CC[n+]1c(-c2ccccc2)c2cc(N)ccc2c2ccc(N)cc21` [EtBr, ethidium bromide] came in with a mtDNA copy number of 5169.1258.

With `CCCCCCCCCCCCCCCC(=O)O` [palmitic acid], in the test with NHDF recipient cells, the “engulfment of DsRed-labeled isolated exogenous mitochondria” value is “decreased; also recorded: clearly suppressed”.

The values above are taken from US20200054682A1, “METHODS AND COMPOSITIONS FOR TREATING MITOCHONDRIAL DISEASE OR DISORDERS AND HETEROPLASMY” (Imel Biotherapeutics, Inc., priority 2018, published 2020).
